In this experiment the test system is IL1b release THP-1. The experiment is described as follows: IL1b release THP-1 (ELISA). The experiment is classed as cell-based. To be noted: Homo sapiens. Here is the method: Example A. Primary Assays Used to Determine IL1b Release THP-1 (ELISA)
• Microbiological safety cabinet, classII (NuAire, USA) • CO2 incubator (VWR Science, USA) • Countess Automated Cell Counter (Invitrogen, USA, cat. number C10227) • Centrifuge CM 6M (Elmi, Latvia) • Serological pipettes 2, 5, 10, 25, 50, 100 ml sterile (Santa Cruz Biotechnology, Inc., USA, sc-200277, sc-200279, sc-200281, sc-200283, Sc-213234, sc-516777) • Single and multichannel pipettes 0.2-10 μL, 50-1200 μL (Eppendorf AG-Hamburg, Germany) • 50 mL PP sterile tubes (Greiner, cat. Number 210261).
• RPMI-1640 (PanEco, C330) • Sodium pyruvate (Paneco, cat. number Φ023) • Non-Essential amino acids 50× (Paneco, Φ116) • Essential amino acids 50× (Paneco, Φ115/50) • FBS (Hyclone Laboratories Inc, USA, SV30160.03) • Antibiotic-antimycotic (Gibco, USA, 15240-062) • 2-mercaptoethanol 1000×55 mM (Gibco, USA, 21985-023) • LPS-EB ultrapure (invivogen, cat. number tlrl-3pelps) • Nigericin (Sigma, cat. number N7143) • ELISA kit, IL-1beta (Cat #A-8766, Interleukin-1 beta-EIA-BEST, Vector Best). LPS Preparation (5 mg/ml): • 1. Add 1 ml of endotoxin-free water according manufacturer's protocol • 2. Vortex until complete solubilization • 3. Aliquote and store at […] for long term storage.
• 1. Add methanol to 10 mg of powder to produce the 10 mM Nigericin solution • 2. Vortex until complete solubilization • 3. Store at 4° C.
THP-1 cells were propagated in RPMI-1640 (10% FBS, Antibiotic-antimycotic 1×, non-Essential amino acids 1×, Essential amino acids 1×, Sodium pyruvate 2×, 2-mercaptoethanol 0.05 mM) at 37° C. and at 5% CO2 in an incubator.
• 1. THP-1 cells were spined at 100 g for 5 min in 50 ml tube. • 2. THP-1 cells were resuspended in warm culture medium (w/o FBS, w/o Antibiotic-antimycotic, non-Essential amino acids 1×, Essential amino acids 1×, Sodium pyruvate 2×) to the concentration 1,3×10^6 cells. • 3. THP-1 cells were primed in tube with 1 μg/ml of LPS for 4 h at 37° C. and at 5% CO2 in an incubator. • 4. THP-1 cells were stimulated with 10 μM of Nigericin (Cat #N7143-10 MG, Sigma Aldrich) for 2 h at 37° C. and at 5% CO2 in an incubator. • 5. After the full activation, the supernatant was collected and the levels of IL-1β were assessed via ELISA according manufacturer instructions (Cat #A-8766, Vector Best).
The average EC50 values are shown in Table A, wherein “A” corresponds to EC50: A≤0.5 μM, “B” corresponds to 0.5 μM<EC50≤1.0 μM, “C” 1.0 μM<EC50≤5.0 μM, “D” corresponds to 5.0 μM<EC50≤30 μM and “E” corresponds to EC50>30 μM.
A general note: In an ELISA, binding on a coated surface is turned into a signal by an enzyme label.

Where [1] appears, read: THP-1, read-out: THP 1 IL 1b, EC50, μM.
Where [2] appears, read: average EC50, THP-1 cells primed with 1 μg/ml LPS 4 h, stimulated with 10 μM Nigericin 2 h, IL-1β in supernatant by ELISA, read-out: THP 1 IL 1b, EC50.

Where two headings read alike, the source gives them in different places.

Experimental findings from patent US20260234123A1, “Inhibitors of NLRP3” (Mwyngil Therapeutics, Inc., priority 2023, published 2026) are described below.

One may read the EC50 as the midpoint of the concentration-response curve. In the case of `Cc1cc(-c2ccc(C(F)(F)F)cc2NS(C)(=O)=O)nnc1N[C@@H]1CCCN(C2CCC2)C1` [Compound 31, (R)—N-(2-(6-((1-Cyclobutylpiperidin-3-yl)amino)-5-methylpyridazin-3-yl)-5-(trifluoromethyl)phenyl) methanesulfonamide], the EC50 under setting [1] is under 0.5 µM.

On to `Cc1cc(-c2ccc(C(F)(F)F)cc2NS(C)(=O)=O)nnc1N[C@@H]1CCCN(C2CCCCC2)C1` [Compound 32, (R)—N-(2-(6-((1-Cyclohexylpiperidin-3-yl)amino)-5-methylpyridazin-3-yl)-5-(trifluoromethyl)phenyl) methanesulfonamide], for which the 50% effective concentration (EC50) under setting [1] was under 0.5 µM.

For `Cc1cc(N[C@@H]2CCCN(C3CCCC3)C2)nnc1-c1ccc(C(F)(F)F)cc1NS(C)(=O)=O` [Compound 33], the concentration for a half-maximal effect (EC50) under setting [2] is under 0.5 µM.

For `Cc1cc(N[C@@H]2CCCN(C3CCC3)C2)nnc1-c1ccc(C(F)(F)F)cc1NS(C)(=O)=O` [Compound 34], under setting [2], the half-maximal effective concentration (EC50) is under 0.5 µM.

With `CCC(C)N1CCC[C@@H](Nc2cc(C)c(-c3ccc(C(F)(F)F)cc3NS(C)(=O)=O)nn2)C1` (stereo partly drawn) [Compound 35, N-(2-(6-(((3R)-1-(sec-Butyl)piperidin-3-yl)amino)-4-methylpyridazin-3-yl)-5-(trifluoromethyl)phenyl) methanesulfonamide], under setting [1], the EC50 was under 0.5 µM.

On to `Cc1cc(N[C@@H]2CCCN(C3CC3)C2)nnc1-c1ccc(C(F)(F)F)cc1NS(C)(=O)=O` [Compound 36, N-[2-[6-[[(3R)-1-cyclopropyl-3-piperidyl]amino]-4-methyl-pyridazin-3-yl]-5-(trifluoromethyl)phenyl]methanesulfon-amide], for which the half-maximal effective concentration (EC50) under setting [2] is under 0.5 µM.

For the compound `CCN1CCC[C@@H](Nc2nnc(-c3ccc(C(F)(F)F)cc3NS(C)(=O)=O)c3c2CCCC3)C1` [Compound 37, (R)—N-(2-(4-((1-Ethylpiperidin-3-yl)amino)-5,6,7,8-tetrahydrophthalazin-1-yl)-5-(trifluoromethyl)phenyl) methane sulfonamide], the EC50 under setting [2] is under 0.5 µM.

`Cc1cc(-c2ccc(C(F)(F)F)cc2NS(C)(=O)=O)nnc1N[C@@H]1CCCN(C2CCOCC2)C1` [Compound 38, (R)—N-(2-(5-Methyl-6-((1-(tetrahydro-2H-pyran-4-yl)piperidin-3-yl)amino)pyridazin-3-yl)-5-(trifluoromethyl)phenyl) methanesulfonamide]: the 50% effective concentration (EC50) under setting [2] is under 0.5 µM.

For the compound `Cc1cc(N[C@@H]2CCCN(C3CCOCC3)C2)nnc1-c1ccc(C(F)(F)F)cc1NS(C)(=O)=O` [Compound 39], the concentration giving a half-maximal response (EC50) under setting [2] was under 0.5 µM.

`Cc1cc(N[C@@H]2CCCN(CC3CCCCC3)C2)nnc1-c1ccc(C(F)(F)F)cc1NS(C)(=O)=O` [Compound 40, N-[2-[6-[[(3R)-1-(cyclohexylmethyl)-3-piperidyl]amino]-4-methyl-pyridazin-3-yl]-5-(trifluoromethyl)phenyl]methanesulfon-amide]: the EC50 under setting [2] was under 0.5 µM.

Regarding `Cc1cc(N[C@@H]2CCCN(C3CCCCC3)C2)nnc1-c1ccc(C(F)(F)F)cc1NS(C)(=O)=O` [Compound 41, N-[2-[6-[[(3R)-1-cyclohexyl-3-piperidyl]amino]-4-methyl-pyridazin-3-yl]-5-(trifluoromethyl)phenyl]methanesulfon-amide], the EC50 under setting [2] was under 0.5 µM.

In the case of `Cc1cc(-c2ccc(C(F)(F)F)cc2NS(C)(=O)=O)nnc1N[C@@H]1CCCN(C2CC2)C1` [Compound 42, (R)—N-(2-(6-((1-Cyclopropylpiperidin-3-yl)amino)-5-methylpyridazin-3-yl)-5-(trifluoromethyl)phenyl) methanesulfonamide], the EC50 under setting [2] was under 0.5 µM.

In the case of `CCN1CCC[C@@H](Nc2cc(C3CC3)c(-c3ccc(C(F)(F)F)cc3NS(C)(=O)=O)nn2)C1` [Compound 43, (R)—N-(2-(4-Cyclopropyl-6-((1-ethylpiperidin-3-yl)amino)pyridazin-3-yl)-5-(trifluoromethyl)phenyl) methanesulfonamide], the 50% effective concentration (EC50) under setting [2] was under 0.5 µM.

As to `Cc1cc(N[C@@H]2CCCN(Cc3ccccc3)C2)nnc1-c1ccc(C(F)(F)F)cc1NS(C)(=O)=O` [Compound 44, N-[2-[6-[[(3R)-1-benzyl-3-piperidyl]amino]-4-methyl-pyridazin-3-yl]-5-(trifluoromethyl)phenyl]methanesulfon-amide], under setting [2], the concentration for a half-maximal effect (EC50) lay in the range of 0.5 to 1 µM.

Take `CCN1CCC[C@@H](Nc2nnc(-c3ccc(C(F)(F)F)cc3NS(C)(=O)=O)cc2C(F)(F)F)C1` [Compound 45, N-[2-[6-[[(3R)-1-ethyl-3-piperidyl]amino]-5-(trifluoromethyl)pyridazin-3-yl]-5-(trifluoromethyl)phenyl]methanesulfon-amide]: under setting [2], the EC50 fell in the range of 0.5 to 1 µM.

Turning to `Cc1cc(N[C@@H]2CCCN(CC(C)C)C2)nnc1-c1ccc(C(F)(F)F)cc1NS(C)(=O)=O` [Compound 46, (R)—N-(2-(6-((1-Isobutylpiperidin-3-yl)amino)-4-methylpyridazin-3-yl)-5-(trifluoromethyl)phenyl) methanesulfonamide], the 50% effective concentration (EC50) under setting [2] lay in the range of 0.5 to 1 µM.

For the compound `Cc1cc(N[C@@H]2CCCN(CC(C)(C)O)C2)nnc1-c1ccc(C(F)(F)F)cc1NS(C)(=O)=O` [Compound 47], the EC50 under setting [2] is 0.5 to 1 µM.

For `CC(C)=CCN1CCC[C@@H](Nc2cc(C)c(-c3ccc(C(F)(F)F)cc3NS(C)(=O)=O)nn2)C1` [Compound 48, (R)—N-(2-(4-Methyl-6-((1-(3-methylbut-2-en-1-yl)piperidin-3-yl)amino)pyridazin-3-yl)-5-(trifluoromethyl)phenyl) methanesulfonamide], the EC50 under setting [2] fell in the range of 0.5 to 1 µM.

As to `CCN1CCC[C@@H](Nc2cc(C(F)(F)F)c(-c3ccc(C(F)(F)F)cc3NS(C)(=O)=O)nn2)C1` [Compound 49, N-[2-[6-[[(3R)-1-ethyl-3-piperidyl]amino]-4-(trifluoromethyl)pyridazin-3-yl]-5-(trifluoromethyl)phenyl]methanesulfon-amide], the half-maximal effective concentration (EC50) under setting [2] was 1 to 5 µM.

For the compound `CN1CCC[C@@H](Nc2nnc(-c3ccc(C(F)(F)F)cc3NS(C)(=O)=O)c3c2CCCC3)C1` [Compound 50, (R)—N-(2-(4-((1-Methylpiperidin-3-yl)amino)-5,6,7,8-tetrahydrophthalazin-1-yl)-5-(trifluoromethyl)phenyl) methane sulfonamide], the half-maximal effective concentration (EC50) under setting [2] is 1 to 5 µM.

As to `CN1CCC[C@@H](Nc2cc(C(F)(F)F)c(-c3ccc(C(F)(F)F)cc3NS(C)(=O)=O)nn2)C1` [Compound 51, N-[2-[6-[[(3R)-1-methyl-3-piperidyl]amino]-4-(trifluoromethyl)pyridazin-3-yl]-5-(trifluoromethyl)phenyl]methanesulfon-amide], the EC50 under setting [2] was in the range of 1 to 5 µM.

Consider `CN1CCC[C@@H](Nc2nnc(-c3ccc(C(F)(F)F)cc3NS(C)(=O)=O)cc2C(F)(F)F)C1` [Compound 52, N-[2-[6-[[(3R)-1-methyl-3-piperidyl]amino]-5-(trifluoromethyl)pyridazin-3-yl]-5-(trifluoromethyl)phenyl]methanesulfon-amide], for which the concentration for a half-maximal effect (EC50) under setting [2] lay in the range of 1 to 5 µM.

As for `COC(C)(C)CCN1CCC[C@@H](Nc2cc(C)c(-c3ccc(C(F)(F)F)cc3NS(C)(=O)=O)nn2)C1` [Compound 53, N-[2-[6-[[(3R)-1-(3-methoxy-3-methyl-butyl)-3-piperidyl]amino]-4-methyl-pyridazin-3-yl]-5-(trifluoromethyl)phenyl]methanesulfon-amide], the EC50 under setting [2] lay within 1 to 5 µM.

As to `CN1CCC[C@@H](Nc2nnc(-c3ccc(C(F)(F)F)cc3NS(C)(=O)=O)c3c2C2CCC3CC2)C1` [Compound 54, N-[2-[6-[[(3R)-1-methyl-3-piperidyl]amino]-4,5-diazatricyclo[6.2.2.02,7]dodeca-2(7),3,5-trien-3-yl]-5-(trifluoromethyl)phenyl]methanesulfon-amide], under setting [2], the concentration for a half-maximal effect (EC50) lay within 5 to 30 µM.

In the case of `Cc1cc(N[C@@H]2CCCN(CCC(C)(C)O)C2)nnc1-c1ccc(C(F)(F)F)cc1NS(C)(=O)=O` [Compound 55, (R)—N-(2-(6-((1-(3-Hydroxy-3-methylbutyl)piperidin-3-yl)amino)-4-methylpyridazin-3-yl)-5-(trifluoromethyl)phenyl) methanesulfonamide], under setting [2], the concentration for a half-maximal effect (EC50) lay in the range of 1 to 5 µM.
